Holding throughout (format): cell-based
The test system of test [1] is HeLa cells. The test can be described thus: Cell proliferation assay (XTT), cytostatic activity. Conditions: Homo sapiens, 72-h treatment, XTT cell proliferation kit. On the procedure: […] cells were seeded in 96-well plates and incubated in the presence or the absence of the indicated compounds at concentrations ranging from 10^-5 to 10^-12 M. The cytostatic activity was measured after 72-h treatments using the XTT (sodium 3'-[1-(phenylaminocarbonyl)-3,4-tetrazolium]-bis(4- methoxy-6-nitro)-benzenesulfonic acid hydrate) cell proliferation kit (Roche Molecular Biochemicals; Mannheim, Germany) following the manufacturer's specifications. Each condition was seeded in triplicate, and experiments were repeated three times to calculate IC values by non-linear regression fitting the data.
On the technique in general: Tetrazolium assays rely on reduction of a dye to a coloured formazan, in cell work by metabolically active cells.

The next test deals with CAL33 RPTX. The test can be described thus: MTT cell viability assay in paclitaxel-resistant cell line. The following applies: for sensitivity of paclitaxel-resistant cells (cell viability): CAL33 RPTX compared with parental CAL33, 24, 48 and 72 hours of exposure, six doses (Figures 1 and 2). On the procedure: • Figure 1. Comparison of the effect on cell viability in the parental and paclitaxel-resistant CAL33 cell lines after 24, 48 and 72 hours of exposure to six different doses of paclitaxel. X axis, time (hours). Y axis, cell viability (%). • Figure 2. Comparison of the effect on cell viability in the parental and paclitaxel-resistant CAL33 cell lines after 24, 48 and 72 hours of exposure to six different doses of Compound 39. X axis, Compund 39 (nM). Y axis, cell viability (%). *p-value < 0.05. **p-value < 0.01. ***p-value < 0.001.
In order to characterise resistance to taxanes in HNSCC, a paclitaxel-resistant cell line was generated from the CAL33 cell line, derived from tongue carcinoma, following the method of progressively increasing the dose of cytotoxic agent on the cells in culture. The generation of a stable paclitaxel-resistant cell line was confirmed by an MTT cell viability assay, named CAL33 RPTX (Figure 1).
In order to search for an alternative treatment with a similar but effective cellular effect on paclitaxel-resistant HNSCC cells, a cell viability assay was performed to test the response to Compound 39 of the CAL33 and CAL33 RPTX cell lines.

The test system of test [2] is HeLa cells. As to the kind of experiment: Cell proliferation assay with and without verapamil (MDR transporter check).
[3] abbreviates: Homo sapiens, without verapamil (control), compounds for 72 h, read-out: potency in the absence of verapamil.
Setting [4] is: read-out: potency in the presence of 10 µM verapamil, incubated with 10 µM verapamil for 2 h, then compounds for 72 h.

Where only a bound is given, the exact number is not on record here.

The compound `COc1cc(/C=C\c2ccc3c(c2)c(C(N)=O)cn3C)cc(OC)c1OC` [Compound 39, (Z)-1-Methyl-5-(3,4,5-trimethoxystyryl)-1H-indole-3-carboxamide] gave an IC50 with HeLa cells [1] of 1200 nM. The “sensitivity of paclitaxel-resistant cells (cell viability)” value in the test with CAL33 RPTX is listed as “maintain sensitivity”. The “effect on tumour cell viability” value in the test with CAL33 RPTX (at very low doses, CAL33 and CAL33 RPTX cell lines (Figure 2)) is “pronounced effect”.
On to `COc1cc(NS(=O)(=O)c2ccc3c(c2)c(C=O)cn3C)cc(OC)c1OC` [Compound 48, 3-Formyl-1-methyl-N-(3,4,5-trimethoxyphenyl)-1H-indole-5-sulfonamide], for which the IC50 with HeLa cells [1] is 206 nM; in the test on HeLa cells [2] (setting [3]), 206 nM; in the test on HeLa cells [2] (setting [4]) it was 287 nM.
For `COc1cc(N(C)S(=O)(=O)c2ccc3c(c2)c(C=O)cn3C)cc(OC)c1OC` [Compound 49, 3-Formyl-N,1-dimethyl-N-(3,4,5-trimethoxyphenyl)-1H-indole-5-sulfonamide], the IC50 in the test with HeLa cells [1] is 41 nM; in the test on HeLa cells [2] (setting [3]) it was 41.2 nM; in the test on HeLa cells [2] (setting [4]) it was 44.7 nM.
For `COc1cc(NS(=O)(=O)c2ccc3c(c2)c(C#N)cn3C)cc(OC)c1OC` [Compound 50, 3-Cyano-1-methyl-N-(3,4,5-trimethoxyphenyl)-1H-indole-5-sulfonamide] the same measures were 21 nM, 21.4 nM and 25.5 nM.
For `COc1cc(N(C)S(=O)(=O)c2ccc3c(c2)c(C#N)cn3C)cc(OC)c1OC` [Compound 51, 3-Cyano-N,1-dimethyl-N-(3,4,5-trimethoxyphenyl)-1H-indole-5-sulfonamide] the same measures were 12.3 nM, 12.3 nM and 10.6 nM.
Consider `COc1cc(OC)cc(N(C)S(=O)(=O)c2ccc3c(c2)c(C=O)cn3C)c1` [Compound 52, N-(3,5-dimethoxyphenyl)-3-formyl-N,1-dimethyl-1H-indole-5-sulfonamide], for which the IC50 in the test with HeLa cells [1], in the test with HeLa cells [2] (setting [3]) and in the test with HeLa cells [2] (setting [4]) was more than 1000 nM in each case.
For the compound `COc1cc(OC)cc(N(C)S(=O)(=O)c2ccc3c(c2)c(C#N)cn3C)c1` [Compound 53, 3-cyano-N-(3,5-dimethoxyphenyl)-N,1-dimethyl-1H-indole-5-sulfonamide], the IC50 with HeLa cells [1] is more than 1000 nM; in the test on HeLa cells [2] (setting [3]), 551 nM; with HeLa cells [2] (setting [4]), 642 nM.
Consider `CC(=O)O[C@H]1C(=O)[C@@]2(C)[C@H]([C@H](OC(=O)c3ccccc3)[C@]3(O)C[C@H](OC(=O)[C@H](O)[C@@H](NC(=O)c4ccccc4)c4ccccc4)C(C)=C1C3(C)C)[C@]1(OC(C)=O)CO[C@@H]1C[C@@H]2O` [paclitaxel], for which the “sensitivity of paclitaxel-resistant cells (cell viability)” value with CAL33 RPTX is on record as “resistant”.

The values above are taken from patent EP4620466A1, “TRIMETHOXYSTYRYL DERIVATIVES FOR USE IN THE TREATMENT OF PACLITAXEL-RESISTANT CANCER” (Instituto de Investigación Biomédica de Salamanca De la …, priority 2024, dated 2025).
